According to patent US20220348966A1, “SYSTEM AND METHOD FOR INCREASED ALCOHOL TOLERANCE AND PRODUCTION IN YEAST” (The Trustees of Princeton University, priority 2019, published 2022):
Like-named read-outs stand apart in the source and are kept apart here.

Columns and labels:
gln3Δ strain [1] = assay type: cell-based, S. cerevisiae; conditions: for tolerance compared to wild type strain: liquid medium
From the text: (§1) The six hypertolerant strains were examined in liquid medium containing heavy alcohols. In this example, the liquid medium contained 1.5% or 1.6% isobutanol, or 8% ethanol.
Tolerance of the gln3Δ strain to other alcohols was explored by measuring its growth in liquid medium containing methanol, 1-propanol, 1-butanol, 2-butanol, tert-butanol, 1-pentanol, 2-methyl-1-butanol, isopentanol, or 1-hexanol.

BY4741 wild type strain = conditions: for cell growth (OD600): 24 h
Protocol: The Tolerance Factor (TF) is defined as the ratio of the OD600 of cells grown with the heavy alcohol in the medium after 24 h, divided by the OD600 of cells grown in the absence of the heavy alcohol for the same amount of time.
A first example is for the identification of the LC50 (lethal concentration for 50% of cells) of isobutanol for the BY4741 wild type strain of S. cerevisiae, the strain from which a gene deletion library was developed (Giaever et al., 2002; Winzeler et al., 1999). […] The cell growth of BY4741 in synthetic complete (SC) liquid medium containing concentrations of isobutanol ranging from 0.0% to 1.8% (v/v) was monitored by measuring the optical density at 600 nm (OD600) after 24-h cultivation.
(§2) Utilizing the LC50 results, one can screen a gene deletion library (here, the BY4741 library [Giaever et al., 2002; Winzeler et al., 1999]) for changes in cell growth in liquid SC medium containing the heavy alcohol at an amount that is 0.1% or 0.2% (v/v) less than the LC50. Here, 1.4% (v/v) isobutanol was used. […] To quantify these phenotypes, a tolerance factor (TF) was defined as the ratio of the OD600 of cells grown with isobutanol in the medium after 24 h, divided by the OD600 of cells grown in the absence of isobutanol for the same amount of time. Thus, one can classify deletion strains as having increased sensitivity or tolerance to isobutanol based on the comparison of their TF values to that of the wild type strain in, e.g., 1.4% isobutanol measured during the screen. […] To assess the specificity of changes in tolerance to isobutanol, the growth of these selected strains in media containing ethanol can also be measured: 8% for sensitive strains or 9% for tolerant strains.
For most screens and analyses of alcohol tolerance, wild type and deletion strains can be cultured in synthetic complete (SC) medium made inhouse (see Table 1) at 30° C., and 2% glucose. Strains overexpressing PPP genes can be cultured in SC medium lacking uracil (SC-Ura) made inhouse.

gcn3Δ strain = assay type: cell-based, S. cerevisiae
Protocol: as §2, §1

zwf1Δ strain = assay type: cell-based, S. cerevisiae; conditions: for sensitivity / cell growth in presence of alcohol compared to wild type: FIG. 5, various alcohols
Protocol: (§3) Growth of 19 hypersensitive strains was measured in liquid SC medium containing 0.6%, 1.0%, or 1.4% isobutanol, or 8% ethanol. These growth experiments were initiated at an OD600 of 0.1, unlike in previous screens, which started with much smaller inoculums (from a 96-pin replicator).
(§4) The sensitivity of gnd1Δ and zwf1Δ strains to other alcohols including methanol, 1-propanol, 1-butanol, 2-butanol, tert-butanol, 1-pentanol, 2-methyl-1-butanol, isopentanol, and 1-hexanol was explored.

gnd1Δ strain = assay type: cell-based, S. cerevisiae; conditions: for sensitivity / cell growth in presence of alcohol compared to wild type: FIG. 5, various alcohols
Protocol: as §3, §4

nha1Δ strain = conditions: 8% ethanol
Protocol: as §3, §4

ydr391cΔ strain = assay type: cell-based, S. cerevisiae; conditions: FIG. 6
From the text: as §1

vps55Δ strain = assay type: cell-based, S. cerevisiae; conditions: FIG. 6
From the text: as §1

avt3Δ strain = assay type: cell-based, S. cerevisiae; conditions: FIG. 6
From the text: as §1

gnp1Δ strain = assay type: cell-based, S. cerevisiae; conditions: FIG. 6
From the text: as §1

yeast = conditions: cited from earlier work
vps34Δ strain = experiment: Growth of hypersensitive strains in liquid SC medium; assay type: cell-based, S. cerevisiae; conditions: 0.6% isobutanol, initial OD600 0.1
BY4741 = experiment: Serial dilutions spotted onto SC agar plates; assay type: cell-based, S. cerevisiae; conditions: SC agar containing 2.4% isobutanol
From the text: To evaluate isobutanol growth inhibition on solid medium, serial dilutions of BY4741 were spotted onto SC agar plates containing 0.0% to 3.0% isobutanol. […] The higher LC50 determined from agar plates may be the result of higher cell tolerance to isobutanol in solid media; however, it could also reflect the difficulty in accurately preparing solid media with specific isobutanol concentrations due to isobutanol evaporation during the pouring of hot agar.

trp2Δ strain = experiment: Gene deletion library screen for isobutanol sensitivity; assay type: cell-based, S. cerevisiae; conditions: second screen, 0.6% and 1.2% isobutanol
From the text: (§5) Here, 1.4% (v/v) isobutanol was used.
(§6) Out of the 164 sensitive strains, the 46 strains that continue to display increased sensitivity to isobutanol at lower concentrations (TF <0.5 in 0.6% isobutanol or TF <0.1 in 1.2% isobutanol) can be categorized as hypersensitive. These strains are highlighted in gray in FIGS. 2A-2C. Among the 36 strains with increased tolerance, 6 continue to display increased tolerance (TF >0.4) in 1.5% isobutanol, which we categorize as hypertolerant (FIG. 3).
(§7) Next, a Gene Ontology (GO) enrichment analysis of genes deleted in the 164 most sensitive and 36 most tolerant strains can be performed. […] In fact, five strains harboring deletions in the TRP gene family, encoding enzymes in tryptophan biosynthesis, show increased isobutanol sensitivity (with trp2Δ, trp3Δ, and trp5Δ being hypersensitive strains). One can examine the increased sensitivity to isobutanol caused by TRP1 deletion because it is an auxotrophic marker in commonly used strains, such as CEN.PK- and SEY6210-derived strains. […] Furthermore, after repairing the TRP1 allele in CEN.PK2-1C and SEY6210, wild-type (BY4741) levels of isobutanol tolerance are recovered.

trp5Δ strain = experiment: as above; assay type: cell-based, S. cerevisiae; conditions: second screen, 0.6% and 1.2% isobutanol
From the text: as §5, §6, §7

trp3Δ strain = experiment: as above; assay type: cell-based, S. cerevisiae; conditions: second screen, 0.6% and 1.2% isobutanol
From the text: as §5, §6, §7

gcn4Δ strain = experiment: Gene deletion library screen, tolerance factor in liquid SC medium; assay type: cell-based, S. cerevisiae; conditions: 1.4% isobutanol
From the text: as §5

gln3Δ strain [2] = experiment: Growth on SC agar medium; assay type: cell-based, S. cerevisiae; conditions: 2.7% isobutanol
From the text: The gln3Δ strain can grow on SC agar medium containing 2.7% isobutanol.

pep12Δ strain = experiment: Growth of hypersensitive strains in liquid SC medium; assay type: cell-based, S. cerevisiae; conditions: 0.6% isobutanol, initial OD600 0.1
[3] = 0.6% isobutanol, initial OD600 0.1

In the case of `CCC(C)CO` (stereo not shown) [2-methyl-1-butanol], the “OD600 relative to wild type strain” value (gln3Δ strain [1]; 0.55% 2-methyl-1-butanol, FIG. 7) is reported as 11.4 fold and the “tolerance compared to wild type strain” value (gln3Δ strain [1]; FIG. 7) is reported as “dramatically enhanced tolerance”.

For `CCO` [Ethanol, ethanol], the “Tolerance Factor” value (BY4741 wild type strain; 8.0% ethanol) was 0.31, the “sensitivity compared to wild type strain” value (gcn3Δ strain; 8% ethanol, FIG. 6) was “at least as sensitive” and the “sensitivity compared to wild type strain” value (zwf1Δ strain; 8% ethanol) was “no more sensitive”. For the same compound, the “sensitivity / cell growth in presence of alcohol compared to wild type” value (zwf1Δ strain) was “neither strain demonstrates significantly increased sensitivity”, the “sensitivity compared to wild type strain” value (gnd1Δ strain; 8% ethanol) was “no more sensitive” and the “sensitivity / cell growth in presence of alcohol compared to wild type” value (gnd1Δ strain) was “neither strain demonstrates significantly increased sensitivity”. The “sensitivity compared to wild type strain” value (nha1Δ strain) was “no more sensitive”, the “sensitivity compared to wild type strain” value (gln3Δ strain [1]; 8% ethanol, FIG. 6) was “at least as sensitive” and the “tolerance compared to wild type strain” value (gln3Δ strain [1]; FIG. 7) was “does not statistically increase tolerance”. The “sensitivity compared to wild type strain” value (ydr391cΔ strain; 8% ethanol) was “at least as sensitive”, the “sensitivity compared to wild type strain” value (vps55Δ strain; 8% ethanol) was “at least as sensitive” and the “sensitivity compared to wild type strain” value (avt3Δ strain; 8% ethanol) was “at least as sensitive”. The “sensitivity compared to wild type strain” value (gnp1Δ strain; 8% ethanol) was “at least as sensitive” and the ethanol concentration endured (yeast; S. cerevisiae) was ≤ 18 % (v/v).

With `CCCCO` [Example 1-butanol, 1-butanol] the “tolerance compared to wild type strain” value (gln3Δ strain [1]; FIG. 7) was “does not statistically increase tolerance”.

In the case of `CCCCCCO` [Example 1-hexanol, 1-hexanol], the “tolerance compared to wild type strain” value (gln3Δ strain [1]; FIG. 7) is reported as “does not statistically increase tolerance”.

For `CCCCCO` [Example 1-pentanol, 1-pentanol], the “tolerance compared to wild type strain” value (gln3Δ strain [1]; FIG. 7) was “does not statistically increase tolerance”.

For `CCCO` [Example 1-propanol, 1-propanol], the “sensitivity / cell growth in presence of alcohol compared to wild type” value (zwf1Δ strain) was “neither strain demonstrates significantly increased sensitivity”, the “sensitivity / cell growth in presence of alcohol compared to wild type” value (gnd1Δ strain) was “neither strain demonstrates significantly increased sensitivity” and the “tolerance compared to wild type strain” value (gln3Δ strain [1]; FIG. 7) was “does not statistically increase tolerance”.

For `CCC(C)O` (stereo not shown) [Example 2-butanol, 2-butanol], the “tolerance compared to wild type strain” value (gln3Δ strain [1]; FIG. 7) was “smaller, but statistically significant, increase in tolerance”.

In the case of `CC(C)CO` [Isobutanol, 2-methyl-1-propanol], the “Tolerance Factor” value (vps34Δ strain) is reported as “less than 0.3”, the “Tolerance Factor” value (BY4741 wild type strain; 0.6% isobutanol) is reported as 0.92 and the “Tolerance Factor” value (BY4741 wild type strain; 1.2% isobutanol) is reported as 0.72. For the same compound, the “Tolerance Factor” value (BY4741 wild type strain; 1.4% isobutanol) was 0.38, the “Tolerance Factor” value (BY4741 wild type strain; 1.5% isobutanol) was 0.19 and the “Tolerance Factor” value (BY4741 wild type strain; 1.6% isobutanol) was 0.11. For the same compound, the “LC50 (lethal concentration for 50% of cells)” value (BY4741 wild type strain; SC liquid medium, OD600 after 24-h cultivation) was ~1.5 % (v/v), the “cell growth (OD600)” value (BY4741 wild type strain; isobutanol 1.4% and 1.5%) was “moderate inhibition” and the “cell growth (OD600)” value (BY4741 wild type strain; isobutanol concentrations above 1.6%) was “significantly inhibited”. For the same compound, the “cell growth (OD600)” value (BY4741 wild type strain; isobutanol concentrations below 1.3%) was “marginally affected”, the “cell growth on agar plates” value (BY4741) was “still observable but noticeably inhibited” and the “Tolerance Factor” value (gcn3Δ strain; 1.4% isobutanol) was 0.98. For the same compound, the “growth compared to wild type” value (gcn3Δ strain; 1.5% isobutanol, FIG. 6) was “grow better than the wild type”, the “tolerance compared to wild type” value (gcn3Δ strain; 1.6% isobutanol, FIG. 6) was “enhanced tolerance” and the isobutanol sensitivity class (trp2Δ strain) was “hypersensitive (TF <0.5 in 0.6% isobutanol or TF <0.1 in 1.2% isobutanol)”. For the same compound, the isobutanol sensitivity class (trp5Δ strain) was “hypersensitive (TF <0.5 in 0.6% isobutanol or TF <0.1 in 1.2% isobutanol)”, the isobutanol sensitivity class (trp3Δ strain) was “hypersensitive (TF <0.5 in 0.6% isobutanol or TF <0.1 in 1.2% isobutanol)” and the “Tolerance Factor” value (gcn4Δ strain) was 0.86. The “Tolerance Factor” value (zwf1Δ strain; [3]) was “less than 0.3”, the “Tolerance Factor” value (gnd1Δ strain; [3]) was “less than 0.3” and the “growth on SC agar medium” value (gln3Δ strain [2]) was “can grow”. For the same compound, the “Tolerance Factor” value (pep12Δ strain) was “less than 0.3”, the “growth compared to wild type” value (gln3Δ strain [1]; 1.5% isobutanol, FIG. 6) was “grow better than the wild type” and the “tolerance compared to wild type” value (gln3Δ strain [1]; 1.6% isobutanol, FIG. 6) was “enhanced tolerance”. For the same compound, the “increase in isobutanol tolerance compared to wild type” value (gln3Δ strain [1]; FIG. 7) was 4.04 fold, the “tolerance compared to wild type strain” value (gln3Δ strain [1]; FIG. 7) was “dramatically enhanced tolerance” and the “growth compared to wild type” value (ydr391cΔ strain; 1.5% isobutanol) was “grow better than the wild type”. For the same compound, the “growth compared to wild type” value (vps55Δ strain; 1.5% isobutanol) was “grow better than the wild type”, the “tolerance compared to wild type” value (vps55Δ strain; 1.6% isobutanol) was “enhanced tolerance” and the “growth compared to wild type” value (avt3Δ strain; 1.5% isobutanol) was “grow better than the wild type”. The “growth compared to wild type” value (gnp1Δ strain; 1.5% isobutanol) was “grow better than the wild type”, the “tolerance compared to wild type” value (gnp1Δ strain; 1.6% isobutanol) was “enhanced tolerance” and the “toxicity for yeast relative to ethanol” value (yeast) was 10 times.

In the case of `CC(C)CCO` [isopentanol, 3-methyl-1-butanol], the “tolerance compared to wild type strain” value (gln3Δ strain [1]; FIG. 7) is reported as “dramatically enhanced tolerance”.

For `CO` [methanol], the “sensitivity / cell growth in presence of alcohol compared to wild type” value (zwf1Δ strain) was “neither strain demonstrates significantly increased sensitivity”, the “sensitivity / cell growth in presence of alcohol compared to wild type” value (gnd1Δ strain) was “neither strain demonstrates significantly increased sensitivity” and the “tolerance compared to wild type strain” value (gln3Δ strain [1]; FIG. 7) was “does not statistically increase tolerance”.

For `CC(C)(C)O` [tert-butanol], the “tolerance compared to wild type strain” value (gln3Δ strain [1]; FIG. 7) was “dramatically enhanced tolerance”.
